Assay results: ChEMBL document CHEMBL4706629, “New derivatives of 4'-phenyl-2,2':6',2″-terpyridine as promising anticancer agents” (Eur J Med Chem, 2021)
Activity calls are given as the source filed them. No cut-off for these calls is given here.

What was measured:
[1] = system: PANC-1; assay: Induction of apoptosis in human PANC-1 cells assessed as increase in PARP cleavage at 0.5 to 5 uM measured after 24 hrs by Western blot analysis; type: functional, cell-based; conditions: dose 0.5-5 µM
[2] = system: PANC-1; assay: Induction of reactive oxygen species generation in human PANC-1 cells at 1 uM measured after 12 hrs by cellrox-green reagent based assay; type: functional, cell-based
[3] = system: PANC-1; assay: Down regulation of p21 expression in human PANC-1 cells at 5 uM measured after 24 hrs by Western blot analysis; type: functional, cell-based
[4] = system: PANC-1; assay: Cytotoxicity against human PANC-1 cells assessed as reduction in cell viability measured after 72 hrs by MTS assay; type: functional, cell-based; conditions: PANC-1, 72 h
[5] = system: DNA; assay: Induction of Escherichia coli supercoiled pUC19 plasmid DNA cleavage assessed as decrease in supercoiled form of plasmid at 25 uM incubated for 60 mins by agarose gel electrophoresis analysis; type: nucleic-acid assay
[6] = system: MCF7; assay: Induction of apoptosis in human MCF7 cells measured after 48 hrs by Annexin V and dead cell kit analysis; type: functional, cell-based; conditions: dose 5-7.5 µM
[7] = system: MCF7; assay: Induction of apoptosis in human MCF7 cells assessed as viable cells at 5 uM measured after 48 hrs by Annexin V and dead cell kit analysis (reference value: 97.4%); type: functional; conditions: read-out: Activity
[8] = system: MCF7; assay: Induction of apoptosis in human MCF7 cells assessed as necrotic cells at 7.5 uM measured after 48 hrs by Annexin V and dead cell kit analysis (reference value: 0.5%); type: functional
[9] = system: PANC-1; assay: Cell cycle arrest in human PANC-1 cells assessed as accumulation at S-phase at 2.5 uM measured after 24 hrs by muse cell analyser (reference value: 14.3 to 14.9%); type: functional
[10] = system: PANC-1; assay: Down regulation of cyclin E1 expression in human PANC-1 cells at 0.5 to 5 uM measured after 24 hrs by Western blot analysis; type: functional, cell-based; conditions: dose 0.5-5 µM
[11] = system: MCF7; assay: Down regulation of cyclin E1 expression in human MCF7 cells at 1 uM measured after 24 hrs by Western blot analysis; type: functional, cell-based
[12] = system: PANC-1; assay: Induction of apoptosis in human PANC-1 cells assessed as viable cells at 7.5 uM measured after 48 hrs by Annexin V and dead cell kit analysis (reference value: 85.6%); type: functional; conditions: read-out: Activity
[13] = system: U-251; assay: Cytotoxicity against human U-251 cells assessed as reduction in cell viability measured after 72 hrs by MTS assay; type: functional, cell-based; conditions: U-251, 72 h
[14] = Up regulation of HIF1 expression in human MCF7 cells at 1 to 5 uM measured after 24 hrs by Western blot analysis relative to control; type: functional; conditions: dose 1-5 µM
[15] = system: PANC-1; assay: Cell cycle arrest in human PANC-1 cells assessed as accumulation at G0/G1-phase at 2.5 uM measured after 24 hrs by muse cell analyser (reference value: 48.28 to 48.7%); type: functional
[16] = system: PANC-1; assay: Induction of apoptosis in human PANC-1 cells assessed as early apoptotic cells at 7.5 uM measured after 48 hrs by Annexin V and dead cell kit analysis (reference value: 10.95%); type: functional
[17] = system: MCF7; assay: Cell cycle arrest in human MCF7 cells assessed as accumulation at G0/G1-phase at 7.5 uM measured after 24 hrs by muse cell analyser (reference value: 52.65 to 53.3%); type: functional
[18] = system: PANC-1; assay: Cell cycle arrest in human PANC-1 cells assessed as accumulation at S-phase at 7.5 uM measured after 24 hrs by muse cell analyser (reference value: 14.3 to 14.9%); type: functional
[19] = system: PANC-1; assay: Cell cycle arrest in human PANC-1 cells assessed as accumulation at S-phase at 5 uM measured after 24 hrs by muse cell analyser (reference value: 14.3 to 14.9%); type: functional
[20] = system: PANC-1; assay: Induction of apoptosis in human PANC-1 cells assessed as viable cells at 5 uM measured after 48 hrs by Annexin V and dead cell kit analysis (reference value: 85.6%); type: functional; conditions: read-out: Activity
[21] = system: MCF7; assay: Cell cycle arrest in human MCF7 cells assessed as accumulation at G2/M-phase at 5 uM measured after 24 hrs by muse cell analyser (reference value: 30.92 to 33.6%); type: functional
[22] = system: MCF7; assay: Induction of apoptosis in human MCF7 cells assessed as early apoptotic cells at 7.5 uM measured after 48 hrs by Annexin V and dead cell kit analysis (reference value: 0.65%); type: functional
[23] = system: PANC-1; assay: Up regulation of p53 expression in human PANC-1 cells at 0.5 to 5 uM measured after 24 hrs by Western blot analysis relative to control; type: functional, cell-based; conditions: dose 0.5-5 µM
[24] = system: PANC-1; assay: Cell cycle arrest in human PANC-1 cells assessed as accumulation at G2/M-phase at 5 uM measured after 24 hrs by muse cell analyser (reference value: 36.3 to 36.88%); type: functional
[25] = system: PANC-1; assay: Cell cycle arrest in human PANC-1 cells assessed as accumulation at G0/G1-phase at 5 uM measured after 24 hrs by muse cell analyser (reference value: 48.28 to 48.7%); type: functional
[26] = system: MCF7; assay: Induction of apoptosis in human MCF7 cells assessed as necrotic cells at 5 uM measured after 48 hrs by Annexin V and dead cell kit analysis (reference value: 0.5%); type: functional
[27] = system: MCF7; assay: Induction of apoptosis in human MCF7 cells assessed as viable cells at 7.5 uM measured after 48 hrs by Annexin V and dead cell kit analysis (reference value: 97.4%); type: functional; conditions: read-out: Activity
[28] = system: PANC-1; assay: Cell cycle arrest in human PANC-1 cells assessed as accumulation at G2/M-phase at 2.5 uM measured after 24 hrs by muse cell analyser (reference value: 36.3 to 36.88%); type: functional
[29] = system: MCF7; assay: Cell cycle arrest in human MCF7 cells assessed as accumulation at S-phase at 7.5 uM measured after 24 hrs by muse cell analyser (reference value: 9.9 to 11.66%); type: functional
[30] = system: MCF7; assay: Induction of reactive oxygen species generation in human MCF7 cells at 1 uM measured after 24 hrs by cellrox-green reagent based assay relative to control; type: functional
[31] = system: PANC-1; assay: Cell cycle arrest in human PANC-1 cells assessed as accumulation at G2/M-phase at 7.5 uM measured after 24 hrs by muse cell analyser (reference value: 36.3 to 36.88%); type: functional
[32] = system: MCF7; assay: Effect on cdc2 expression in human MCF7 cells at 1 to 5 uM measured after 24 hrs by Western blot analysis; type: functional, cell-based; conditions: dose 1-5 µM
[33] = system: DNA; assay: Induction of Escherichia coli supercoiled pUC19 plasmid DNA cleavage assessed as increase in open circular form of a plasmid at 25 uM incubated for 60 mins by agarose gel electrophoresis analysis; type: nucleic-acid assay
[34] = system: PANC-1; assay: Cell cycle arrest in human PANC-1 cells assessed as increase in accumulation at G0/G1-phase measured after 24 hrs by muse cell analyser; type: functional, cell-based
[35] = system: MCF7; assay: Induction of apoptosis in human MCF7 cells assessed as late apoptotic cells at 5 uM measured after 48 hrs by Annexin V and dead cell kit analysis (reference value: 1.45%); type: functional
[36] = system: NHDF; assay: Cytotoxicity against NHDF cells assessed as reduction in cell viability measured after 72 hrs by MTS assay; type: cell-based; conditions: Homo sapiens
[37] = system: PANC-1; assay: Induction of apoptosis in human PANC-1 cells assessed as early apoptotic cells at 5 uM measured after 48 hrs by Annexin V and dead cell kit analysis (reference value: 10.95%); type: functional
[38] = system: K562; assay: Cytotoxicity against human K562 cells assessed as reduction in cell viability measured after 72 hrs by MTS assay; type: functional, cell-based; conditions: K562, 72 h

## c1ccc(-c2cn(-c3ccc(-c4cc(-c5ccccn5)nc(-c5ccccn5)c4)cc3)nn2)nc1
[1]
  Activity: Active
[2]
  Activity: Active
[3]
  Activity: Active
[4]
  IC50: 114 nM
[5]
  Activity: Active
[6]
  Activity: Dose-dependent effect
[7]
  viability at 5 µM: 67.1%
[8]
  Activity: 4.15%
[9]
  Activity: 11.2%
[10]
  Activity: inactive
[11]
  Activity: Active
[12]
  viability at 7.5 µM: 39%
[13]
  IC50: 855 nM
[14]
  fold change (FC): 45
[15]
  Activity: 53.98%
[16]
  Activity: 54.6%
[17]
  Activity: 60.4%
[18]
  Activity: 6.9%
[19]
  Activity: 7.3%
[20]
  viability at 5 µM: 48.8%
[21]
  Activity: 22.4%
[22]
  Activity: 28.2%
[23]
  Activity: inactive
[24]
  Activity: 35.25%
[25]
  Activity: 55.1%
[26]
  Activity: 10.9%
[27]
  viability at 7.5 µM: 50.2%
[28]
  Activity: 30.2%
[29]
  Activity: 10%
[30]
  Activity: >150%
[31]
  Activity: 31%
[32]
  Activity: inactive
[33]
  Activity: Active
[34]
  Activity: Dose-dependent effect
[35]
  Activity: 11.4%
[36]
  IC50: > 25000 nM
[37]
  Activity: 41.4%
[38]
  IC50: 916 nM
